In ChEMBL document CHEMBL1129986, “Reliability of comparative molecular field analysis models: effects of data scaling and variable selection using a set of human synovial fluid phospholipase A2 inhibitors” (J Med Chem, 1997) one finds inhibition data, which are given here for 10 compounds.

In this assay the target is T1, Phospholipase A2, membrane associated (Homo sapiens) (UniProt P14555).
T1 sequence (whole entry): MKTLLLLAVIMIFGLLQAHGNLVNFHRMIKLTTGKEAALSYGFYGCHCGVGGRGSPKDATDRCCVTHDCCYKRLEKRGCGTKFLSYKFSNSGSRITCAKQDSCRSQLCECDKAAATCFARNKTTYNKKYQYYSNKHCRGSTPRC
As to the kind of experiment: Inhibitory activity against human synovial fluid phospholipase A2 (HSF-PLA2). Also noted: concentration or dose not given beside the values. Conditions: concentration not given here.
`CCCCCCCCCCS(=O)(=O)N[C@@H](CCCCCC)COP(=O)(O)OCCO` registered an inhibition of 40%.

In turn, `CCCCCCCCCCS(=O)(=O)N[C@H](CCCCCC)COP(=O)(O)OCCO` (stereo in doubt; form 1) had an inhibition of 44%.

Compound `CCCCCCCCCCS(=O)(=O)NC(CCCCCC)COCC(F)(F)F` (stereo not given) displayed an inhibition of 0%.

As for `CCCCCCCCCCCC(=O)NC(CCCCCC)COP(=O)(O)OCCO` (stereo not given), the inhibition came to 65%.

`CCCCCCCCCCS(=O)(=O)NC(CCCCCC)COP(=O)(O)OCCO` (stereo not given) returned an inhibition of 36%.

In turn, `CCCCCCCCCCS(=O)(=O)N[C@H](CCCCCC)COP(=O)(O)OCCO` (stereo in doubt; form 2) came in with an inhibition of 45%.

Turning to `CCCCCCCCCCS(=O)(=O)NC(CCCCCC)COP(=O)(O)OCCCC` (stereo not given), the inhibition turned out to be 0%.

Compound `CCCCCCCCCCC(=O)NC(CCCCCC)COP(=O)(O)OCCNCc1ccccc1` (stereo not given) showed an inhibition of 28%.

In the case of `CCCCCCCCCCS(=O)(=O)CC(CCCCCC)COP(=O)(O)OCCO` (stereo not given), the inhibition was found to be 29%.

In the case of `CCCCCCCCCCS(=O)(=O)N[C@H](CCCCCC)COP(=O)(O)OCCOCc1ccccc1`, the inhibition came to 78%.
